Results as given in US20230384330A1, “COMPOSITIONS AND METHODS RELATING TO THE IDENTIFICATION AND TREATMENT OF IMMUNOTHROMBOTIC CONDITIONS” (THE REGENTS OF THE UNIVERSITY OF MICHIGAN, priority 2020, published 2023).
“Also recorded” adds a separate entry of the source.

Experiments:
CD142/TF [1] = test: CD142/TF expression in PBMC stimulated with TLR ligands, mass cytometry; assay type: cell-based, human; details: PBMC from HC stimulated 4 h, vs no treated (NT) controls
Method: FIGS. 12A-12C: Inflammatory mediators increase CD142/TF expression and activity in monocytes. A) PBMC were isolated from HC and stimulated with Pam2CSK4(TLR2), Poly(I:C) (TLR3), and LPS (TLR4) for 4 h. […] Circles represent CD14+ monocytes. B) PBMC were isolated and stimulated with LPS and Ang II (vascular activator) and TF activity was quantified based on the ability of TF/FVIIa to activate FX to factor Xa. The amidolytic activity of the TF/FVIIa complex is quantitated by the amount of FXa produced using a FXa substrate which releases a chromophore upon cleavage. *p<0.05. C) To probe for the mechanisms that regulate TF expression in circulating monocytes, PBMC were isolated and stimulated with LPS with or without Annexin V (AnnV) to block apoptotic sensing (through masking of PS on target cells/particles) in monocytes. […] Results representative of 3 independent experiments.
To determine if inflammatory mediators can drive monocyte TF expression, CD14+ monocytes were isolated from PBMCs and stimulated with TLR ligands (Pam2Csk4; Poly(I:C); LPS) for 4 hours.
Measurement of inflammatory mediated TF expression. To determine if inflammatory mediators can drive monocyte TF expression, CD14+ monocytes were isolated from peripheral blood mononuclear cells (PBMC) and were stimulated with TLR ligands (Pam2Csk4; Poly(I:C); LPS) for 4 hours. To assess if monocyte-bound TF is active, a FXa activity assay was used. CD14+ monocytes were stimulated with LPS and FXa activity was assessed as a marker of TF activity.

p-p65 and p-PKC = test: Signal pathway activation in CD14+ monocytes treated with LPS and heparin, microfluidic proteomics (p-p65, p-PKC); assay type: cell-based, human; details: LPS 1 ug/ml 4 h and heparin 10 u/ml, between groups
Method: (§1) FIGS. 3A-3B: Heparin augments type I IFN/STAT1 signaling and tends to blunt CD142/TF transcriptional induction in response to LPS. A) CD14+ monocytes were stimulated with LPS (1 ug/ml; 4 h) and heparin (Hep) (10 u/ml) and signal pathway activation was probed using microfluidic proteomics. […] However, phospo-STAT1 activation was augmented in monocytes cotreated with LPS and Hep. Normalized activation determined by normalizing phospho proteins to total protein. B) qRT-PCR of CD14+ monocytes treated with LPS with and without Hep. […] Fold-change determined normalizing to GAPDH and to NT groups. *p<0.05; #p=0.07
PBMC treatment and stimulation. Approximately 10 million cells were equally divided into 4 fractions and treated with the following (for Hep experiments): 1) Hep (1.5 U/mL), 2) LPS (1 μg/mL), 3) LPS+Hep (1 μg/mL LPS with 1.5 U/mL Hep), and 4) RPMI medium alone. All treatments were performed for 2 hours in suspension at 37° C. and 5% CO2 with gentle vortexing every 30 minutes to prevent cell sedimentation. After 2-hour incubation, cells were centrifuged, and supernatants were collected. Cells were then resuspended in 1 mL PBS (without Ca^2+ and Mg ^2+) for downstream analysis

PBMC = test: Signaling pathway activation and inflammatory transcriptional programs in PBMC, heparin alone; assay type: cell-based, human
CD142/TF [2] = test: qRT-PCR of CD142/TF in CD14+ monocytes treated with LPS with and without heparin; assay type: cell-based, human
Method: as §1
PCR gene expression assay. RNA was then eluted in 32 uL RNase free water and concentration and purity were measured using Nanodrop. Applied Biosystems High-Capacity cDNA Reverse Transcription kit was used to convert RNA into cDNA for qPCR per the manufacturer's instructions. PCR was performed in 96 well plate using Taqman master mix and Taqman primers. 1× GAPDH-VIC and 1× target gene-FAM was used for each PCR reaction as housekeeping control gene and target gene respectively (total of 20 μL reaction volume). “No treatment control” is used to normalize each target gene expression for analysis of experimental groups.

STAT1 = test: Signal pathway activation in monocytes/PBMC treated with LPS and heparin, microfluidic proteomics (phospho-STAT1); assay type: cell-based, human; details: LPS 1 ug/ml 4 h cotreated with heparin 10 u/ml, vs LPS alone
TF/FVIIa complex = test: Tissue factor activity assay (TF/FVIIa activation of FX to FXa, chromogenic substrate) in PBMC; assay type: cell-based, human
Method: (§2) FIGS. 2A-2B: Monocytes activated by inflammatory stimuli increase TF/CD142 expression and activity. PBMC were isolated from healthy controls and stimulated with LPS (1 ug/ml for 4 h) and compared with no treatment (NT) controls. […] B) Tissue factor activity was assessed in both cells and supernatants in PBMC treated with LPS (1 ug/ml for 4 h). The tissue factor activity was quantified based on the ability of TF/FVIIa to activate FX to factor Xa. The amidolytic activity of the TF/FVIIa complex is quantitated by the amount of FXa produced using a highly specific FXa substrate which releases a chromophore upon cleavage. *p<0.05.
FIGS. 5A-5C: Annexin V peptide pretreatment blocks LPS induction of CD142/Tissue factor and CD142/Tissue factor activity. PBMC were pre-treated for 1 hr with Annexin V (10 ug/ml) or PBS and then stimulated with LPS (1 ug/ml) for 4 hours. PBMC were analyzed with either flow cytometry or tissue factor activity assay. A) Representative SSC vs. FSC gating strategy for Monocytes and Lymphocytes; B) CD142/Tissue factor was assessed by flow cytometry. […]
Active TF catalyzes the conversion of factor X to Xa; TF activity in plasma, microvesicles, and monocytes were measured by quantifying factor Xa activity using the fluorogenic factor Xa substrate (Abcam). TF activity was quantified based on the ability of TF/FVIIa to activate FX to FXa. […]

CD142/Tissue factor = CD142/Tissue factor expression on PBMC populations by flow cytometry; assay type: cell-based, human; details: for CD142 expression (percent positive CD142+) in monocytes and granulocytes: PBMCs, 1 ug/mL LPS or 155 ug/mL LpA, 4 hours; for CD142/Tissue factor induction by LPS: PBMC pre-treated 1 hr with Annexin V 10 ug/ml, then LPS 1 ug/ml 4 hours
Method: as §2
FIGS. 5A-5C: Annexin V peptide pretreatment blocks LPS induction of CD142/Tissue factor and CD142/Tissue factor activity. PBMC were pre-treated for 1 hr with Annexin V (10 ug/ml) or PBS and then stimulated with LPS (1 ug/ml) for 4 hours. PBMC were analyzed with either flow cytometry or tissue factor activity assay. A) Representative SSC vs. FSC gating strategy for Monocytes and Lymphocytes; B) CD142/Tissue factor was assessed by flow cytometry. Annexin V pre-treatment blocks CD142/Tissue factor induction by LPS. C). CD142/Tissue factor activity using substrate cleavage and FXa generation. Results are representative of three independent experiments. *p<0.05
PBMCs were isolated and treated with 1 ug/mL LPS, 155 ug/mL LpA, or a combination of the above for 4 hours with gentle vortexing every 30 minutes. Cells were blocked with Tru-Stain FcX for 10 minutes and then treated with human anti CD142-PE for 30 minutes on ice. Cells were then analyzed via flow cytometry. (A) Representative FSC vs. SSC gating strategy. (B) Percent positive CD142+ for lymphocytes. (C) Percent positive CD142+ for monocytes. (D) Percent positive CD142+ for granulocytes. N=3. *p-value<0.0001 (ANOVA).

NFκB = NFκB activation in THP1-Dual monocytes (SEAP, QUANTI-Blue assay); assay type: cell-based, human; details: 24 h, 77.5 ug/mL Lp(a)
Method: FIG. 10: Lp(a) increases NFκB induction on THP1-Dual monocytes; addition of TLR2 decreases activation effect of Lp(a). THP1-Dual monocytes stimulated for 24 h with 77.5 ug/mL Lp(a), 77.5 μg/mL Lp(a)+10 μg/mL TR2, 77.5 μg/mL Lp(a)+10 μg/mL TR4, and 100 ng/mL Pam2CSK4. After 24 h stimulation, supernatant was collected and NFκB activation was assessed by measuring the levels of SEAP using QUANTI-Blue assay. Levels of SEAP were determined by reading the optical density at 640 nm. *p-value<0.0001 (ANOVA).
THP1-Dual monocytes stimulated for 24 h with 77.5 ug/mL Lp(a), 77.5 ug/mL Lp(a)+10 ug/ml TLR2, 77.5 ug/ml Lp(a)+10 ug/ml TLR4, and 100 ng/mL Pam2CSK4. After 24 h stimulation, supernatant was collected and NFkB activation was assessed by measuring the levels of SEAP using QUANTI-Blue assay. Levels of SEAP were determined by reading the optical density at 640 nm. *p-value<0.0001 (ANOVA). […] THP1-Dual monocytes stimulated for 24 h with 77.5 ug/mL Lp(a), 77.5 ug/mL Lp(a)+10 ug/ml TLR2, 77.5 ug/ml LpA+10 ug/ml TLR4, and 100 ng/mL Pam2CSK4. After 24 h stimulation, supernatant was collected and IRF activation was assessed by measuring the levels of Lucia luciferase using QUANTI-Luc assay. Levels of Lucia luciferase were determined by measuring the relative light units (RLUs) in a luminometer at a 100 ms reading time.

## Pam2CSK4
CD142/TF [1]
  CD142/TF expression (viSNE plots, CD14+ monocytes): increased CD142/TF expression

## Poly(I:C)
CD142/TF [1]
  CD142/TF expression (viSNE plots, CD14+ monocytes): increased CD142/TF expression

## heparin
p-p65 and p-PKC
  p-p65 and p-PKC activation: no differences
PBMC
  signaling pathway activation or inflammatory transcriptional programs: no effects
PBMCs
  cytotoxicity: not cytotoxic
CD142/TF [2]; cotreatment with LPS and heparin, fold-change normalized to GAPDH and NT, #p=0.07
  transcriptional induction of CD142/TF by LPS: trend to blunted transcriptional expression; also recorded: seemed to blunt
STAT1
  phospho-STAT1 activation (phospho protein normalized to total protein): augmented; also recorded: increases in STAT1 activation

## lipopolysaccharide [LPS]
TF/FVIIa complex; PBMC/monocytes stimulated with inflammatory stimulus, vs untreated
  TF activity (FXa production): increases TF activity
CD142/Tissue factor; LPS 1 ug/ml, 2-4 h, vs no treatment (NT)
  CD142/TF expression in monocytes: induce TF expression; also recorded: rapid and robust induction; also recorded: rapidly drives TF expression
CD142/Tissue factor
  CD142 expression (percent positive CD142+) in monocytes and granulocytes: upregulated
CD142/Tissue factor; response to LPS
  TF induction in purified CD14+ Mϕ compared with bulk PBMC stimulation: much less TF induction
CD142/TF [1]
  CD142/TF expression (viSNE plots, CD14+ monocytes): increased CD142/TF expression
CD142/TF [2]; LPS alone, CD14+ monocytes, vs NT
  CD142/TF transcriptional expression: induced

## lipoprotein (a) [Lp(a)]
CD142/Tissue factor
  CD142 expression (percent positive CD142+) in monocytes and granulocytes: upregulated
NFκB
  NFκB induction (SEAP, optical density at 640 nm): increases

B1: Annexin V (protein, UniProt P08758 2-320, looked up)
Annexin A5: AQVLRGTVTDFPGFDERADAETLRKAMKGLGTDEESILTLLTSRSNAQRQEISAAFKTLFGRDLLDDLKSELTGKFEKLIVALMKPSRLYDAYELKHALKGAGTNEKVLTEIIASRTPEELRAIKQVYEEEYGSSLEDDVVGDTSGYYQRMLVVLLQANRDPDAGIDEAQVEQDAQALFQAGELKWGTDEEKFITIFGTRSVSHLRKVFDKYMTISGFQIEETIDRETSGNLEQLLLAVVKSIRSIPAYLAETLYYAMKGAGTDDHTLIRVMVSRSEIDLFNIRKEFRKNFATSLYSMIKGDTSGDYKKALLLLCGEDD
TF/FVIIa complex; PBMC pre-treated 1 hr with Annexin V 10 ug/ml, then LPS 1 ug/ml 4 hours
  CD142/Tissue factor activity (FXa generation) induced by LPS: blocks
CD142/Tissue factor
  CD142/Tissue factor induction by LPS: blocks
CD142/Tissue factor; listed as AnnV
  CD142/Tissue factor induction by LPS: greatly reduced
CD142/Tissue factor; listed as annexin V
  CD142/Tissue factor induction by LPS: dramatic blunting
